Marks after values point to notes of the source that are not given here.
Columns and labels:
[1] = test system: mouse cumulus enclosed oocytes; experiment: Induction of resumption of meiosis in mouse cumulus enclosed oocytes exposed to AY9944-A-7; format: cell-based
Protocol: Immature female C57BI/2J B6D2 mice (11-15 g) were stimulated with exogenous gonadotropins (7.5 IU per mouse; Gonadoplex, Leo, Ballerup, Denmark). Forty-eight hours after injection with gonadotropins, the mice were sacrificed and the ovaries removed. Cumulus enclosed oocytes (CEO) were recovered by puncturing individual follicles and collected in a culture medium (a-MEM, Gibco, BRL) supplemented with 3 mg/ml bovine serum albumin, 5 mg/ml human serum albumin, 2 mM L-glutamine, 100 IU/ml penicillin, 100 μg/ml streptomycin and 4 mM hypoxanthine (control medium).
Induction of resumption of meiosis in mouse cumulus enclosed oocytes exposed to an inhibitor of sterol Δ14-reductase (AY9944-A-7) during culture.
Oocytes from 10-15 mice were pooled and randomly divided into the different test groups. The tests were performed using 4-well dishes (Nunclon, Roskilde, Denmark) each well containing 20-50 oocytes in 400 μl culture medium. Each dish had one well serving as control and the three other wells as tests.
All test media were prepared using HX-medium. AY9944-A-7 (AY) was kindly provided by Wyeth-Ayerst, Princeton, N.J., USA. AY has no structural similarities to MAS. Stock solutions of AY9944 in water were stored at −20° C., and was added directly to the HX-medium immediately prior to oocyte culture. AY was used in concentrations from 0.2 to 25 μM.

[2] = test system: sterol 14-reductase (Δ14R); details: AY 0.1 μM, cultured rat hepatocytes; cited from earlier work
[3] = test system: mouse cumulus enclosed oocytes; experiment: Resumption of meiosis (GVBD) in mouse cumulus enclosed oocytes exposed to Amphotericin B; format: cell-based
Protocol: Amphotericin B is a medical product used against fungal infections by inhibiting cholesterol biosynthesis. It has no structural similarities to MAS. Its effect on resumption of meiosis was tested on mouse cumulus enclosed oocytes, in vitro. Ovarian stimulation was performed on immature female mice and the cumulus enclosed oocytes (CEO) isolated as described in Example 3.
Cumulus enclosed oocytes were cultured separately in 4-well dishes (Nuncleon, Roskilde, Denmark), 0.4 ml medium in each well containing control medium or medium supplemented with Amphotericin B (Bristol-Myers Squibb) in a 100% humidified atmosphere of 5% CO2 with 95% air at 37° C.
The effect of Amphotericin in concentrations of 0.6 and 1.2 μg/ml was evaluated after 22 hours in culture.
In another series of experiments, i.e. priming of CEO, the culture period with Amphotericin, priming period, varied from 5 min. to 240 min. in test medium with 1.2 μg/ml Amphotericin. After the priming period, the CEO were transferred to control medium and the culture continued for a total of 22 hours.
By the end of the culture period, germinal […] breakdown (GVBD) was scored by examining the oocyte in an inverted microscope. The percentage of oocytes with GVBD per total number of oocytes (% GVBD) was calculated.

[4] = test system: mouse cumulus enclosed oocytes; experiment: Resumption of meiosis (GVBD) of mouse oocytes cultured in vitro with FSH and/or EGF; format: cell-based; details: EGF 0.5 ng/ml, 22-24 h, HX-medium
Protocol: Immature female mice (B6D2-F1 strain C57B1/2J) were kept under controlled light and temperature conditions with free access to food and water. […] The percentage of oocytes with GVBD per total number of oocytes (% GVBD) was calculated.

**Q.** Which results are given for `Cl.Cl.Clc1ccccc1CNCC1CCC(CNCc2ccccc2Cl)CC1` (stereo not shown) [AY, AY9944-A-7]?
**A.** Oocyte maturation of CEO (FIG. 2) ([1]; AY 0.2 to 25 μM in HX-medium): stimulates oocyte maturation of CEO in a dose-dependent way; GVBD compared to the controls (FIG. 2) ([1]; AY 5, 10 and 25 μM, p<0.05, p<0.001 and p<0.001): increase GVBD significantly; Mode of action on Δ14R [2]: competitive inhibitor

**Q.** For `C[C@@H]1[C@H](O)[C@@H](C)/C=C/C=C/C=C/C=C/C=C/C=C/C=C/[C@H](O[C@@H]2O[C@H](C)[C@@H](O)[C@H](N)[C@@H]2O)C[C@@H]2O[C@](O)(C[C@@H](O)C[C@@H](O)[C@H](O)CC[C@@H](O)C[C@@H](O)CC(=O)O[C@H]1C)C[C@H](O)[C@H]2C(=O)O` [Amfotericin, Amphotericin B], which “% GVBD” value ([3]; 0.6 μg/ml, 22 hours in culture, 94 oocytes) is on record?
**A.** The value was 28%.

**Q.** And the “No. of GVBD” value ([3]; 0.6 μg/ml, 22 hours in culture, of 94 oocytes)?
**A.** The value was 26.

**Q.** And the “% GVBD” value ([3]; 1.2 μg/ml priming 5 minutes, then control medium to 22 hours, 98 oocytes)?
**A.** Its value is 21%.

**Q.** And the “No. of GVBD” value ([3]; 1.2 μg/ml priming 5 minutes, then control medium to 22 hours, of 98 oocytes)?
**A.** The value was 21.

**Q.** What about the “% GVBD” value ([3]; 1.2 μg/ml priming 10 minutes, then control medium to 22 hours, 88 oocytes) of the same molecule?
**A.** Its value is 29%.

**Q.** What about the “No. of GVBD” value ([3]; 1.2 μg/ml priming 10 minutes, then control medium to 22 hours, of 88 oocytes) of the same molecule?
**A.** Its value is 26.

**Q.** And the “% GVBD” value ([3]; 1.2 μg/ml priming 30 minutes, then control medium to 22 hours, 116 oocytes)?
**A.** Its value is 36%.

**Q.** What about the “No. of GVBD” value ([3]; 1.2 μg/ml priming 30 minutes, then control medium to 22 hours, of 116 oocytes) of the same molecule?
**A.** Its value is 42.

**Q.** What about the “% GVBD” value ([3]; 1.2 μg/ml priming 120 minutes, then control medium to 22 hours, 50 oocytes) of the same molecule?
**A.** Its value is 50%.

**Q.** And the “No. of GVBD” value ([3]; 1.2 μg/ml priming 120 minutes, then control medium to 22 hours, of 50 oocytes)?
**A.** Its value is 25.

**Q.** And the “% GVBD” value ([3]; 1.2 μg/ml priming 240 minutes, then control medium to 22 hours, 49 oocytes)?
**A.** The value was 69%.

**Q.** What about the “No. of GVBD” value ([3]; 1.2 μg/ml priming 240 minutes, then control medium to 22 hours, of 49 oocytes) of the same molecule?
**A.** The value was 34.

**Q.** What about the “% GVBD” value ([3]; 1.2 μg/ml, 22 hours in culture, 121 oocytes) of the same molecule?
**A.** The value was 76%.

**Q.** What about the “No. of GVBD” value ([3]; 1.2 μg/ml, 22 hours in culture, of 121 oocytes) of the same molecule?
**A.** The value was 92.

**Q.** For EGF: epidermal growth factor, which “% GVBD” value ([4]; 68 oocytes) is on record?
**A.** The value was 31^c,d %.

**Q.** What about the “No. of GVBD” value ([4]; of 68 oocytes) of the same molecule?
**A.** Its value is 21.

From US20050175976A1, “Meiosis activating sterol augments implantation rate” (priority 1999, published 2005)
